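Grown in 96-well plates, cells were treated for 48 hours with each compound at five concentrations. Insufficient inhibition: endpoint recorded as highest concentration tested. Here, GI50 denotes the concentration required for 50% inhibition of growth.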 Active and inactive are the calls of the source. Cut-off read from the data, not from the text of the source: active = GI50 up to about 1.1 µM and inactive = higher.
Assays:
Assay in all cases: growth of human tumour cells (NCI), 48 h
786-0 = system: 786-0
A498 = system: A498
A549 = system: A549
ACHN = system: ACHN
BT-549 = system: BT-549
CAKI-1 = system: CAKI-1
CCRF-CEM = system: CCRF-CEM
COLO 205 = system: COLO 205
DU-145 = system: DU-145
EKVX = system: EKVX
HCC 2998 = system: HCC 2998
HCT-116 = system: HCT-116
HCT-15 = system: HCT-15
HL-60 = system: HL-60
HOP-62 = system: HOP-62
HOP-92 = system: HOP-92
HT-29 = system: HT-29
Hs-578T = system: Hs-578T
IGROV-1 = system: IGROV-1
K562 = system: K562
KM12 = system: KM12
LOX IMVI = system: LOX IMVI
M14 = system: M14
MDA-MB-231 = system: MDA-MB-231
MDA-MB-435 = system: MDA-MB-435
MOLT-4 = system: MOLT-4
Malme-3M = system: Malme-3M
NCI-H226 = system: NCI-H226
NCI-H23 = system: NCI-H23
NCI-H460 = system: NCI-H460
NCI-H522 = system: NCI-H522
NCI/ADR-RES = system: NCI/ADR-RES
OVCAR-3 = system: OVCAR-3
OVCAR-4 = system: OVCAR-4
OVCAR-5 = system: OVCAR-5
OVCAR-8 = system: OVCAR-8
PC-3 = system: PC-3
RPMI-8226 = system: RPMI-8226
RXF 393 = system: RXF 393
SF-268 = system: SF-268
SF-295 = system: SF-295
SK-MEL-28 = system: SK-MEL-28
SK-MEL-2 = system: SK-MEL-2
SK-MEL-5 = system: SK-MEL-5
SK-OV-3 = system: SK-OV-3
SNB-19 = system: SNB-19
SNB-75 = system: SNB-75
SR = system: SR
SW-620 = system: SW-620
T47D = system: T47D
TK-10 = system: TK-10
U-251 = system: U-251
UACC-257 = system: UACC-257
UACC-62 = system: UACC-62
UO-31 = system: UO-31
MCF7 = system: MCF7
MDA-N = system: MDA-N
SF-539 = system: SF-539
SN12C = system: SN12C

Measured: GI50

C#CCNC(Cc1ccccc1)C(=O)O (stereo unspecified)
inactive: 786-0 > 100 µM | A498 > 100 µM | A549 > 100 µM | ACHN > 100 µM | BT-549 > 100 µM | CAKI-1 > 100 µM | CCRF-CEM > 100 µM | COLO 205 > 100 µM | DU-145 > 100 µM | EKVX > 100 µM | HCC 2998 > 100 µM | HCT-116 > 100 µM | HL-60 > 100 µM | HOP-62 > 100 µM | HOP-92 > 100 µM | HT-29 > 100 µM | Hs-578T > 100 µM | IGROV-1 > 100 µM | K562 > 100 µM | KM12 > 100 µM | LOX IMVI > 100 µM | M14 > 100 µM | MDA-MB-231 > 100 µM | MDA-MB-435 > 100 µM | MOLT-4 > 100 µM | Malme-3M > 100 µM | NCI-H226 > 100 µM | NCI-H23 > 100 µM | NCI-H460 > 100 µM | NCI-H522 > 100 µM | NCI/ADR-RES > 100 µM | OVCAR-3 > 100 µM | OVCAR-4 > 100 µM | OVCAR-5 > 100 µM | OVCAR-8 > 100 µM | PC-3 > 100 µM | RPMI-8226 > 100 µM | RXF 393 > 100 µM | SF-268 > 100 µM | SF-295 > 100 µM | SK-MEL-28 > 100 µM | SK-MEL-2 > 100 µM | SK-MEL-5 > 100 µM | SK-OV-3 > 100 µM | SNB-19 > 100 µM | SNB-75 > 100 µM | SR > 100 µM | SW-620 > 100 µM | T47D > 100 µM | TK-10 > 100 µM | U-251 > 100 µM | UACC-257 > 100 µM | UACC-62 > 100 µM | UO-31 > 100 µM
> 100 µM: HCT-15

CC1=C2CC3=C(C)C(=O)O[C@H]3C[C@@H](C)[C@@H]2CC1 [AMERICANOLIDE D]
> 100 µM: HCT-15
inactive: 786-0 > 100 µM | A498 > 100 µM | ACHN > 100 µM | BT-549 > 100 µM | CAKI-1 > 100 µM | CCRF-CEM 76.2 µM | COLO 205 > 100 µM | EKVX > 100 µM | HCC 2998 > 100 µM | HCT-116 > 100 µM | HL-60 80.5 µM | HOP-92 > 100 µM | HT-29 85.9 µM | Hs-578T > 100 µM | IGROV-1 > 100 µM | K562 37.8 µM | KM12 7.48 µM | LOX IMVI > 100 µM | M14 > 100 µM | MDA-MB-231 > 100 µM | MDA-MB-435 > 100 µM | MOLT-4 51.9 µM | Malme-3M > 100 µM | NCI-H226 > 100 µM | NCI-H23 > 100 µM | NCI-H460 > 100 µM | NCI/ADR-RES > 100 µM | OVCAR-3 > 100 µM | OVCAR-4 > 100 µM | OVCAR-5 > 100 µM | OVCAR-8 > 100 µM | PC-3 > 100 µM | RPMI-8226 > 100 µM | SF-268 > 100 µM | SF-295 > 100 µM | SK-MEL-28 > 100 µM | SK-MEL-2 > 100 µM | SK-MEL-5 91.8 µM | SK-OV-3 > 100 µM | SNB-19 > 100 µM | SNB-75 97.5 µM | SR 62.1 µM | SW-620 > 100 µM | TK-10 > 100 µM | U-251 > 100 µM | UACC-257 > 100 µM | UACC-62 > 100 µM | UO-31 > 100 µM

C(=N/Nc1ccc(-c2nc3ccccc3[nH]2)cc1)/c1c(-c2ccccc2)[nH]c2ccccc12
inactive: EKVX 3.16 µM | HOP-92 > 100 µM | OVCAR-4 2.78 µM | RXF 393 1.6 µM | T47D 28.8 µM
0.409 µM: HCT-15
active: 786-0 0.465 µM | A498 0.516 µM | ACHN 0.575 µM | CAKI-1 0.53 µM | CCRF-CEM 0.443 µM | DU-145 0.733 µM | HCC 2998 0.168 µM | HCT-116 0.424 µM | HL-60 0.211 µM | HOP-62 0.319 µM | HT-29 0.222 µM | Hs-578T 0.267 µM | IGROV-1 0.728 µM | K562 0.176 µM | KM12 0.4 µM | LOX IMVI 0.759 µM | M14 0.215 µM | MCF7 0.361 µM | MDA-MB-231 0.475 µM | MDA-MB-435 0.0471 µM | MDA-N 0.0303 µM | MOLT-4 0.658 µM | NCI-H226 0.408 µM | NCI-H23 0.973 µM | NCI-H460 0.315 µM | NCI-H522 0.34 µM | NCI/ADR-RES 0.286 µM | OVCAR-3 0.219 µM | OVCAR-8 0.698 µM | PC-3 0.311 µM | RPMI-8226 0.268 µM | SF-268 0.647 µM | SF-295 0.294 µM | SF-539 0.444 µM | SK-MEL-28 0.638 µM | SK-MEL-2 0.199 µM | SK-MEL-5 0.311 µM | SK-OV-3 0.32 µM | SNB-75 0.703 µM | SR 0.12 µM | SW-620 0.317 µM | TK-10 0.766 µM | U-251 0.322 µM | UACC-257 0.678 µM | UO-31 0.405 µM

CC[C@@]1(O)C(=O)OCc2c1cc1n(c2=O)Cc2c-1nc1ccccc1c2/C=N\c1ccc(N[C@@H]2c3cc4c(cc3[C@@H](c3cc(OC)c(O)c(OC)c3)[C@H]3C(=O)OC[C@@H]32)OCO4)cc1
active: 786-0 < 0.0104 µM | A549 0.038 µM | ACHN < 0.01 µM | BT-549 0.11 µM | DU-145 < 0.01 µM | HCT-116 0.033 µM | HOP-62 < 0.0136 µM | K562 0.0585 µM | M14 0.0194 µM | MCF7 < 0.01 µM | MOLT-4 < 0.01 µM | NCI-H23 0.0198 µM | NCI-H460 < 0.01 µM | NCI-H522 0.0427 µM | SF-268 < 0.0185 µM | SK-MEL-5 0.0315 µM | SNB-19 0.0446 µM | SR < 0.01 µM | T47D < 0.014 µM | U-251 0.171 µM | UACC-257 0.315 µM | UO-31 0.0403 µM

CCCCCCCCCCCCCCCCCCNc1ccn(C2OC(COP(=O)(O)O)C(O)C2O)c(=O)n1 (stereo unspecified)
inactive: 786-0 > 100 µM | A498 > 100 µM | A549 > 100 µM | ACHN > 100 µM | BT-549 > 100 µM | CAKI-1 > 100 µM | CCRF-CEM > 100 µM | COLO 205 > 100 µM | DU-145 > 100 µM | EKVX > 100 µM | HCC 2998 > 100 µM | HCT-116 > 100 µM | HOP-62 > 100 µM | HOP-92 > 100 µM | HT-29 > 100 µM | Hs-578T > 100 µM | IGROV-1 > 100 µM | K562 > 100 µM | KM12 > 100 µM | LOX IMVI > 100 µM | M14 > 100 µM | MCF7 > 100 µM | MDA-MB-231 > 100 µM | MDA-MB-435 > 100 µM | MOLT-4 > 100 µM | NCI-H226 > 100 µM | NCI-H23 > 100 µM | NCI-H522 > 100 µM | NCI/ADR-RES > 100 µM | OVCAR-3 > 100 µM | OVCAR-4 > 100 µM | OVCAR-5 > 100 µM | OVCAR-8 > 100 µM | PC-3 > 100 µM | RPMI-8226 > 100 µM | RXF 393 > 100 µM | SF-268 > 100 µM | SF-295 > 100 µM | SF-539 > 100 µM | SK-MEL-28 > 100 µM | SK-MEL-2 > 100 µM | SK-MEL-5 > 100 µM | SK-OV-3 > 100 µM | SN12C > 100 µM | SNB-19 > 100 µM | SNB-75 > 100 µM | SW-620 > 100 µM | T47D > 100 µM | TK-10 > 100 µM | U-251 > 100 µM | UACC-257 > 100 µM | UACC-62 > 100 µM | UO-31 > 100 µM
> 100 µM: HCT-15
